According to patent publication US9890111B2, “Crystal structure of bifunctional transglycosylase PBP1b from E. coli and inhibitors thereof” (Academia Sinica, priority 2008, dated 2018):
In brackets after ≈: the same amount, converted by molar mass. Like-named read-outs stand apart in the source and are kept apart here.

Experiments:
[1] = target: T1, penicillin-binding protein 1b from E. coli (transglycosylase) (Escherichia coli, UniProt P02919); assay: Lipid II polymerization / transglycosylase (TG) activity assay; format: biochemical; details: for remaining activity at 100 µM: read-out: TG Activity at various concentration of cmpd: 100 μM; for TG Activity at various concentration of cmpd: 50 μM: 50 μM compound; for TG Activity at various concentration of cmpd: 100 μM: 100 μM compound; for remaining activity at 50 µM: read-out: TG Activity at various concentration of cmpd: 50 μM
T1 construct: PBP1b[58-804] was amplified from E. coli genomic DNA and cloned into the expression vector pET15b; His6 (N, cleaved yes); made in house; host or cells: E. coli BL21(DE3)
T1 sequence (P02919 58-804): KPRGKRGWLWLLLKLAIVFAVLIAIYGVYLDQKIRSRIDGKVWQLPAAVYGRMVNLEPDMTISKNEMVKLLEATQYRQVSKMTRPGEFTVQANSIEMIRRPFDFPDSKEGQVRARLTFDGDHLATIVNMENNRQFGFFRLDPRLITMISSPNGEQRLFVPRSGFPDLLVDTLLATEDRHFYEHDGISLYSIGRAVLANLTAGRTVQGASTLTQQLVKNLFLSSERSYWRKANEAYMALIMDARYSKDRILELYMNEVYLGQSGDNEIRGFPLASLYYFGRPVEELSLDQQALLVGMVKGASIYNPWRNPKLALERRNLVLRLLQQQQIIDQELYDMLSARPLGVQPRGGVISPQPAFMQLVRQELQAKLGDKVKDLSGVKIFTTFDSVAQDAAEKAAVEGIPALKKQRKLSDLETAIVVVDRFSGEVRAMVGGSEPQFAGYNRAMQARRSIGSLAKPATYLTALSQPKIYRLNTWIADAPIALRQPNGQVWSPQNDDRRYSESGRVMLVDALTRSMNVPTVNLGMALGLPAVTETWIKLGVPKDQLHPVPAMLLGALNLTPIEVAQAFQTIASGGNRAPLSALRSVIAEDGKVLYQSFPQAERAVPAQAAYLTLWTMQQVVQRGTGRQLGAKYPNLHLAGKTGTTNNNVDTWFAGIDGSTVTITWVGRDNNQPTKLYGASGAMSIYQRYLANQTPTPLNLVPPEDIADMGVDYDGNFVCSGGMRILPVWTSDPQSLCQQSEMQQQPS
Description: Lipid II polymerization assays were carried out by incubating 100 μM fluorophore-labeled lipid II and penicillin-binding protein 1b from E. coli in tubes containing 10 ng/μL N-acetyl muramidase in 50 mM Tris.HCl (pH 8.0), 10 mM MgCl2, 0.1% Triton X-100, 10% DMSO, and 15% MeOH for 30 minutes (Van Nieuwenhze et al. J Am Chem Soc 2002, 124, 3656.). The fluorophore can be dansyl chloride, NBD, BODIPY, fluorescein. Reaction supernatants were then injected onto an anion-exchange HPLC column (SAX1, Supelco Co.) and eluted with a linear gradient of ammonium acetate (20 mM to 0.5 M) in methanol. The eluant was monitored for fluorescence with λex=466 nm and λem=535 nm.
Purified protein was concentrated in 20 mM Tris-HCl (pH 8.0), 300 mM NaCl, and 1 mM DDM. Instead of using Dansyl lipid II, 6-(N-(7-nitrobenz-2-oxa-1,3-diazol-4-yl)amino) hexanoyl (NBD)-labeled Lipid II was prepared as described (Taubes G (2008) Science 321:356-361; Payne D J (2008) Science 321:1644-1645) and used as a substrate to measure TG enzymatic activity, with approach similar to what has been described previously (Holtje J V (1998) Microbiol Mol Biol Rev 62:181-203). Assays were carried out by using the following condition: NBD-Lipid II, 20 nM protein, 50 mM Tris HCl (pH 8.0), 10 mMCaCl2, 0.085% decyl PEG (Anatrace), and 15% MeOH at 37° C. for 0, 1, 3, 5, 7, 9, 20, and 30 min. The concentration of NBD-Lipid II was varied from 1 to 100 μM to determine the rate of the TG activity. After the reaction, 200 μM moenomycin was added to stop the reaction, and 13 μM muramidase (Sigma-Aldrich) was added to digest the TG products to result in NBD-Lipid II without lipid tails. The fluorescent signal decrease of substrate and increase of NBD-Lipid II without lipid tails were detected by anion-exchange column SAX1 (Supelco) on HPLC (Hitachi). The elution procedures was a linear gradient of ammonium acetate (20 mM to 1 M) in MeOH monitored at λexcitation=466 nm and λemission=535 nm. The kinetic parameter was estimated by following the Michaelis-Menten equation. To investigate the importance of transmembrane (TM) helix, PBP1b and PBP1bΔTM (residues Met-1 to Leu-87 were removed) were extracted with the buffer containing 20 mM Tris-HCl (pH 8.0), 300 mM NaCl, and 13 mM FOS-CHOLINE-14 (Anatrace). The protein was purified by nickel chelation chromatography in the presence of 1 mM DDM. The activity assay was carried out by using the following condition: 12 μM NBD-Lipid II, 20 nM protein, 50 mM Tris-HCl (pH 8.0), 10 mM CaCl2, 0.085% decyl PEG, and 15% MeOH at 37° C. for time 0, 1, 3, 5, 7, 9, 20, and 30 min. The initial velocity was used to compare the activity of full-length PBP1b and PBP1bΔTM.

[2] = system: Staphylococcus aureus (ATCC29213, SA); assay: Minimal inhibitory concentration (MIC), SA; format: cell-based; details: for MIC: Staphylococcus aureus; for MIC SA: Staphylococcus aureus ATCC29213
Description: (§1) The minimal inhibitory concentration (MIC) of tested compounds was determined following the NCCLS standard. The experiments were conducted in 96-well microtiter plates using two-fold dilutions in Muller-Hilton broth with (Streptococcus pneumonia) or without blood (Bacillus subtilis, Enterococcus faecalis, Staphylococcus aureus, Escherichia coli, MRSA, Actinetobacter baumannii, Pseudomonas aeruginosa, Stenotrophomonas maltophilia, and Mycobacterium smegmatis). Exponentially growing cells at 5×10^5 cells/ml were incubated with test compounds at various concentrations. After an 18 h to 24 h incubation at 37° C., MIC was determined as the minimal concentration of the compound that prevents bacterial growth.

[3] = system: methicillin-resistant Staphylococcus aureus (ATCC33592, MRSA); assay: Minimal inhibitory concentration (MIC), MRSA; format: cell-based; details: for MIC: Staphylococcus aureus, read-out: MIC MRSA
Description: as §1

[4] = system: Mycobacterium smegmatis (ATCC11565, MS); assay: Minimal inhibitory concentration (MIC), MS; format: cell-based; details: for MIC: Mycolicibacterium smegmatis; for MIC MS: Mycobacterium smegmatis ATCC11565
Description: as §1

[5] = system: Escherichia coli (ATCC 25922, EC); assay: Minimal inhibitory concentration (MIC), EC; format: cell-based
Description: as §1

[6] = ATCC29213, Staphylococcus aureus ATCC29213, read-out: MIC SA
[7] = methicillin-resistant Staphylococcus aureus ATCC33592
[8] = ATCC11565, Mycobacterium smegmatis ATCC11565, read-out: MIC MS
[9] = ATCC25922, Escherichia coli ATCC 25922, read-out: MIC EC
[10] = TG activity remaining (0% = full inhibition)

| SMILES | remaining activity at 100 µM [1] | MIC [2, 6] | MIC [3, 7] | MIC [4, 8] | MIC SA [2] | MIC MS [4] | TG Activity at various concentration of cmpd: 50 μM [1, 10] | TG Activity at various concentration of cmpd: 100 μM [1, 10] | MIC MRSA [3, 7] | MIC EC ([5]; Escherichia coli ATCC 25922) | also measured |
| --- | --- | --- | --- | --- | --- | --- | --- | --- | --- | --- | --- |
| O=C(Nc1cc(Cl)c(Cl)c(Cl)c1)c1cc(Br)cc(Br)c1O [Compound 001] | 100% | ≤ 0.03 µg/mL | 0.06 µg/mL (≈ 0.126 µM) | ≤ 0.03 µg/mL | – | – | – | – | – | – | MIC [5, 9]: 16 µg/mL (≈ 33.7 µM) |
| O=C(Nc1ccc(Cl)c(Cl)c1)c1cc(Cl)cc(Cl)c1O [Compound 003] | 100% | – | – | – | – | – | – | – | – | – | MIC ([2]; ATCC29213, read-out: MIC SA): 0.25 µg/mL (≈ 0.712 µM); MIC [3]: 1 µg/mL (≈ 2.85 µM); MIC ([4]; ATCC11565, read-out: MIC MS): 0.06 µg/mL (≈ 0.171 µM); MIC ([5]; Escherichia coli, ATCC25922, read-out: MIC EC): 32 µg/mL (≈ 91.2 µM) |
| O=C(Nc1cc(Cl)c(Cl)c(Cl)c1)c1cc(Cl)cc(Cl)c1O [Compound 004] | 100% | – | 0.5 µg/mL (≈ 1.3 µM) | – | 0.125 µg/mL (≈ 0.324 µM) | ≦0.03 μg/ml | – | – | – | – | MIC [5, 9]: 16 µg/mL (≈ 41.5 µM) |
| O=C(Nc1cc(Cl)cc(C(=O)c2ccc(Cl)cc2)c1Cl)c1cc(Br)cc(Br)c1O [Compound 115] | – | – | – | – | 0.5 µg/mL (≈ 0.864 µM) | 0.25 µg/mL (≈ 0.432 µM) | 100% | 0% | 2 µg/mL (≈ 3.46 µM) | >256 µg/mL | – |
| O=C(Nc1cc(Cl)cc(C(=O)c2ccccc2)c1Cl)c1cc(Br)cc(Br)c1O [Compound 116] | – | – | – | – | 1 µg/mL (≈ 1.84 µM) | 0.5 µg/mL (≈ 0.919 µM) | 100% | 0% | 8 µg/mL (≈ 14.7 µM) | >256 µg/mL | – |
| O=C(Nc1cc(Cl)cc(C(=O)c2ccc(Cl)cc2)c1Cl)c1cc(Cl)cc(Br)c1O [Compound 117] | – | – | – | – | 0.5 µg/mL (≈ 0.936 µM) | 0.25 µg/mL (≈ 0.468 µM) | 100% | 0% | 0.5 µg/mL (≈ 0.936 µM) | >256 µg/mL | – |
| O=C(Nc1ccc(Cl)cc1)c1cc(Br)cc(Br)c1O [Compound 118] | 100% | 1 µg/mL (≈ 2.47 µM) | – | 1 µg/mL (≈ 2.47 µM) | – | – | – | – | 4 µg/mL (≈ 9.87 µM) | – | remaining activity at 50 µM [1]: 100%; MIC [5, 9]: 128 µg/mL (≈ 316 µM) |
| Cc1ccc(C(C)C)cc1Oc1ccc(Cl)cc1NC(=O)c1cc(Cl)cc(Br)c1O [Compound 121] | – | – | – | – | 0.25 µg/mL (≈ 0.491 µM) | 0.25 µg/mL (≈ 0.491 µM) | 0% | 0% | 0.125 µg/mL (≈ 0.245 µM) | >256 µg/mL | TG Activity at various concentration of cmpd: 25 μM ([1]; 25 μM compound, TG activity remaining (0% = full inhibition)): 90% |
| O=C(Nc1ccc(Oc2ccc(Cl)cc2)c(Cl)c1)c1cc(Br)cc(Br)c1O [Compound 122] | – | – | – | – | 0.5 µg/mL (≈ 0.94 µM) | 0.125 µg/mL (≈ 0.235 µM) | 60% | 0% | 0.25 µg/mL (≈ 0.47 µM) | >256 µg/mL | – |
| O=C(c1ccc(Cl)cc1)c1cc(NC(=O)c2cc(Cl)cc(Br)c2O)c(Cl)cc1Cl [Compound 123] | – | – | – | – | 0.25 µg/mL (≈ 0.468 µM) | 0.06 µg/mL (≈ 0.112 µM) | 60% | 0% | 0.25 µg/mL (≈ 0.468 µM) | >256 µg/mL | – |
| O=C(c1ccccc1)c1cc(NC(=O)c2cc(Br)cc(Br)c2O)ccc1Cl [Compound 124] | – | – | – | – | 1 µg/mL (≈ 1.96 µM) | 1 µg/mL (≈ 1.96 µM) | 100% | 0% | 1 µg/mL (≈ 1.96 µM) | >256 µg/mL | – |
| O=C(Nc1cc(Cl)ccc1O)c1ccc(Cl)c(C(=O)c2ccc(Cl)cc2)c1 [Compound 126] | – | – | – | – | 1 µg/mL (≈ 2.38 µM) | 0.06 µg/mL (≈ 0.143 µM) | 100% | 100% | 0.125 µg/mL (≈ 0.297 µM) | >256 µg/mL | – |
| O=C(Nc1cc(Cl)ccc1Cl)c1cc(Br)cc(Br)c1O [Compound 127] | 100% | 1 µg/mL (≈ 2.27 µM) | 1 µg/mL (≈ 2.27 µM) | 1 µg/mL (≈ 2.27 µM) | – | – | – | – | – | – | remaining activity at 50 µM [1]: 100%; MIC [5, 9]: 64 µg/mL (≈ 145 µM) |
| O=C(Nc1ccc(O)cc1)c1cc(Br)cc(Br)c1O [KTS-1] | – | 32 µg/mL (≈ 82.7 µM) | > 32 µg/mL | 16 µg/mL (≈ 41.3 µM) | – | – | – | – | – | – | remaining activity at 50 µM [1]: 70% |
| O=C(Nc1ccccc1O)c1cc(Br)cc(Br)c1O [KTS-3] | – | 4 µg/mL (≈ 10.3 µM) | 4 µg/mL (≈ 10.3 µM) | 4 µg/mL (≈ 10.3 µM) | – | – | – | – | – | – | remaining activity at 50 µM [1]: 70% |
| Cc1ccc(NC(=O)c2cc(Br)cc(Br)c2O)cc1Cl [KTS-7] | 100% | 1 µg/mL (≈ 2.38 µM) | 1 µg/mL (≈ 2.38 µM) | 1 µg/mL (≈ 2.38 µM) | – | – | – | – | – | – | remaining activity at 50 µM [1]: 100% |
| O=C(Nc1ccc(Cl)cc1)c1cc(Br)cc(Br)c1O [KTS-9] | – | – | – | – | 1 µg/mL (≈ 2.47 µM) | 2 µg/mL (≈ 4.93 µM) | 100% | 100% | 1 µg/mL (≈ 2.47 µM) | – | – |
